Results published in patent US10336775B2 (Asceneuron SA, priority 2014, dated 2019).

What follows are compounds tested against His-Tagged hOGA (human O-GlcNAcase) (Homo sapiens (Human), UniProt O60502) (assay: Human O-GlcNAcase enzyme inhibition assay (Example B01)). Details: OGA IC50 (M), OGA enzyme inhibition assay; activity range classes defined in μM.
Chain of His-Tagged hOGA (human O-GlcNAcase) (O60502 whole entry): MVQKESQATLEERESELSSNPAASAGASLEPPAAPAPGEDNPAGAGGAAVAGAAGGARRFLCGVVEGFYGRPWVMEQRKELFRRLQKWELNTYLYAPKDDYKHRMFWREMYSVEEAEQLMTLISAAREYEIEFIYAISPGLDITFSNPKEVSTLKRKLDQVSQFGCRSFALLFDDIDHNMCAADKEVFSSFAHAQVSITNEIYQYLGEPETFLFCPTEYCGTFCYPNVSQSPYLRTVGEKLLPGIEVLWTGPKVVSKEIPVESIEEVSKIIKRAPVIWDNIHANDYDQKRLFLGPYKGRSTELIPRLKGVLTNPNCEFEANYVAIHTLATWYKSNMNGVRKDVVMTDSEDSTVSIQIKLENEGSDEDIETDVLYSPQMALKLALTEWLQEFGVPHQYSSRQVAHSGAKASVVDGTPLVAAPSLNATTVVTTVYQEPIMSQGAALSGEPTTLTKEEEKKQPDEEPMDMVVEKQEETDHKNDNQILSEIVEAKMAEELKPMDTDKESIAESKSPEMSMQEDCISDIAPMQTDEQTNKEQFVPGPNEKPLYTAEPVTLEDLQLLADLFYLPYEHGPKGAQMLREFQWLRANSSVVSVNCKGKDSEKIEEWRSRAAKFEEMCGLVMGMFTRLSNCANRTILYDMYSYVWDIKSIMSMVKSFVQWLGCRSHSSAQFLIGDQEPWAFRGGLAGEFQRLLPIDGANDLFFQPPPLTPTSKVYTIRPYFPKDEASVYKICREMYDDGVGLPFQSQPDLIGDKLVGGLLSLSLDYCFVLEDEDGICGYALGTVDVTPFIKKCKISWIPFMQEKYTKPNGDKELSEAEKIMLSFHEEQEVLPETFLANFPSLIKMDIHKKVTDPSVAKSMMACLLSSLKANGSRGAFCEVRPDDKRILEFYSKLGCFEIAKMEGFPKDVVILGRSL
Type: biochemical
Compound `CC(c1ccc2c(c1)OCO2)N1CCN(c2ncc(C(=O)N(C)C)s2)CC1` (racemic) [Example 47, 2-(4-(1-(Benzo[d](1,3)dioxol-5-yl)ethyl)piperazin-1-yl)-N,N-dimethylthiazole-5-carboxamide] has an IC50 of 5e-08 to 2e-07 M.

Same assay, conditions: OGA enzyme inhibition assay; activity range classes defined in μM; read-out: OGA IC50
With `CCOC(=O)c1ccc(N2CCN([C@@H](C)c3ccc4c(c3)OCO4)CC2)nc1` [Example 183, Ethyl (S)-6-(4-(1-(benzo[d][1,3]dioxol-5-yl)ethyl)piperazin-1-yl)nicotinate] the IC50 was 5e-08 to 2e-07 M.
Compound `Cc1ccnc(N2CCN(C(C)c3ccc4c(c3)OCO4)CC2)n1` (racemic) [Example 9, 2-(4-(1-(Benzo[d][1,3]dioxol-5-yl)ethyl)piperazin-1-yl)-4-methylpyrimidine] has an IC50 of 2e-07 to 1e-06 M.
`CC(c1ccc2c(c1)OCO2)N1CCN(c2nccc(N)n2)CC1` (racemic) [Example 22, 2-(4-(1-(Benzo[d][1,3]dioxol-5-yl)ethyl)piperazin-1-yl)pyrimidin-4-amine] gave an IC50 of 5e-08 to 2e-07 M.
For `CNC(=O)c1csc(N2CCN(C(C)c3ccc4c(c3)OCCO4)CC2)n1` (racemic) [Example 50, 2-(4-(1-(2,3-dihydrobenzo[b][1,4]dioxin-6-yl)ethyl)piperazin-1-yl)-N-methylthiazole-4-carboxamide], the IC50 was 5e-08 to 2e-07 M.
For `C[C@@H](c1ccc2c(c1)OCO2)N1CCN(c2ccc(C(=O)N(C)C)cn2)CC1` [Example 187, (S)-6-(4-(1-(benzo[d][1,3]dioxol-5-yl)ethyl)piperazin-1-yl)-N,N-dimethylnicotinamide], the IC50 was < 5e-08 M.
`CC(c1ccc2nccnc2c1)N1CCN(c2ccc(C(F)(F)F)cn2)CC1` (racemic) [Example 165, 6-(1-(4-(5-(trifluoromethyl)pyridin-2-yl)piperazin-1-yl)ethyl)quinoxaline] was tested, and the IC50 was 2e-07 to 1e-06 M.
In the case of `CC(c1ccc2c(c1)OCO2)N1CCN(c2nnc(NC(=O)C3CC3)s2)CC1` (racemic) [Example 108, N-(5-(4-(1-(benzo[d][1,3]dioxol-5-yl)ethyl)piperazin-1-yl)-1,3,4-thiadiazol-2-yl)cyclo propanecarboxamide], the IC50 was < 5e-08 M.
`CC(c1ccc2c(c1)OCCO2)N1CCN(c2ncc(C(=O)N3CCC(O)CC3)s2)CC1` (racemic) [Example 73, (2-(4-(1-(2,3-Dihydrobenzo[b][1,4]dioxin-6-yl)ethyl)piperazin-1-yl)thiazol-5-yl)(4-hydroxypiperidin-1-yl)methanone] gave an IC50 of 5e-08 to 2e-07 M.
For `CC(=O)Nc1cnc(N2CCN(C(C)c3ccc4ncsc4c3)CC2)nc1` (racemic) [Example 174, N-(2-(4-(1-(benzo[d]thiazol-6-yl)ethyl)piperazin-1-yl)pyrimidin-5-yl)acetamide], the IC50 was 1e-06 to 1e-05 M.
`C[C@@H](c1ccc2c(c1)OCO2)N1CCN(c2ncc(F)cn2)CC1` [Example 173, (S)-2-(4-(1-(benzo[d][1,3]dioxol-5-yl)ethyl)piperazin-1-yl)-5-fluoropyrimidine] was tested, and the IC50 was < 5e-08 M.
With `C[C@@H](c1ccc2c(c1)OCO2)N1CCN(c2ccc(C(C)(C)O)cn2)CC1` [Example 190, (S)-2-(6-(4-(1-(benzo[d][1,3]dioxol-5-yl)ethyl)piperazin-1-yl)pyridin-3-yl)propan-2-ol] the IC50 was < 5e-08 M.
Compound `CC(c1ccc2c(c1)OCO2)N1CCN(c2ccc(N)cn2)CC1` (racemic) [Example 58, 6-(4-(1-(Benzo[d][1,3]dioxol-5-yl)ethyl)piperazin-1-yl)pyridin-3-amine] has an IC50 of 5e-08 to 2e-07 M.
For `COc1cnc(N2CCN([C@@H](C)c3ccc4c(c3)OCO4)CC2)nc1` [Example 195, (S)-2-(4-(1-(benzo[d][1,3]dioxol-5-yl)ethyl)piperazin-1-yl)-5-methoxypyrimidine], the IC50 was < 5e-08 M.
`CC(c1ccc2c(c1)OCCO2)N1CCN(c2nc(C(N)=O)cs2)CC1` (racemic) [Example 49, 2-(4-(1-(2,3-Dihydrobenzo[b][1,4]dioxin-6-yl)ethyl)piperazin-1-yl)thiazole-4-carboxamide] gave an IC50 of 2e-07 to 1e-06 M.
`CC(=O)N(C)Cc1cnc(N2CCN(C(C)c3ccc4c(c3)OCO4)CC2)s1` (racemic) [Example 80, N-((2-(4-(1-(benzo[d][1,3]dioxol-5-yl)ethyl)piperazin-1-yl)thiazol-5-yl)methyl)-N-methylacetamide] was tested, and the IC50 was < 5e-08 M.
`CCc1cnc(N2CCN(C(C)c3ccc4nccnc4c3)CC2)nc1` (racemic) [Example 103, 6-(1-(4-(5-ethylpyrimidin-2-yl)piperazin-1-yl)ethyl)quinoxaline] showed an IC50 of 5e-08 to 2e-07 M.
`CC(=O)Nc1cnc(N2CCN(C(C)c3ccc4nsnc4c3)CC2)nc1` (racemic) [Example 122, N-(2-(4-(1-(benzo[c][1,2,5]thiadiazol-5-yl)ethyl)piperazin-1-yl)pyrimidin-5-yl)acetamide] was tested, and the IC50 was < 5e-08 M.
For `C[C@@H](c1ccc2c(c1)OCO2)N1CCN(c2nc3c(s2)CN(S(C)(=O)=O)CC3)CC1` [Example 193, (S)-2-(4-(1-(benzo[d][1,3]dioxol-5-yl)ethyl)piperazin-1-yl)-5-(methylsulfonyl)-4,5,6,7-tetrahydrothiazolo[5,4-c]pyridine], the IC50 was < 5e-08 M.
Compound `Cc1cnc(N2CCN(C(C)c3ccc4c(c3)OCO4)CC2)s1` (racemic) [Example 36] has an IC50 of 5e-08 to 2e-07 M.

Same assay, conditions: measured according to Example B01
With `Cc1cc2ccc(C(C)N3CCN(c4ncccc4C(F)(F)F)CC3)cc2[nH]c1=O` (stereo not shown) [compound of example 56 of WO 99/21850, reference compound] the “OGA inhibitor activity (in words)” value was “not useful as OGA inhibitors”.
`C[C@@H](c1ccc2c(c1)OCO2)N1CCN(c2ncc(F)cn2)CC1` [Example 173, (S)-2-(4-(1-(benzo[d][1,3]dioxol-5-yl)ethyl)piperazin-1-yl)-5-fluoropyrimidine] was tested, and the “OGA inhibitor activity (in words)” value was “very potent OGA inhibitors”.
